Source: PubChem BioAssay AID248 (DTP/NCI, 2004)
Several values for one entry are separate records, joined by “and”; a condition that tells them apart may be missing. Identical values can stand only once. Inconclusive results and toxic doses are left out. Cut-off read from the data, not from the text of the source: active = T/C of 150% or more; inactive = T/C below 125%.

Tested on: L1210 leukemia ip in BDF1 mice, survival T/C
Test: NCI In Vivo Anticancer Drug Screen. Data for tumor model L1210 Leukemia (intraperitoneal) in B6D2F1 (BDF1) mice
Conditions: endpoint: mean survival time, higher = longer survival
In short: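 Antitumor effect is assessed in tumor-bearing animals. Survival in the compound arm is compared with a vehicle-dosed control arm and expressed as their quotient.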

[1] = dose: 100.0 mg/kg/injection, schedule: Q04DX003 (ip), vehicle: saline with Tween-80
[2] = dose: 200.0 mg/kg/injection, schedule: Q04DX003 (ip), vehicle: saline with Tween-80
[3] = dose: 400.0 mg/kg/injection, schedule: Q04DX003 (ip), vehicle: saline with Tween-80
[4] = dose: 50.0 mg/kg/injection, schedule: Q01DX001 (ip), vehicle: carboxymethylcellulose (CMC)
[5] = dose: 100.0 mg/kg/injection, schedule: Q01DX001 (ip), vehicle: other
[6] = dose: 200.0 mg/kg/injection, schedule: Q01DX001 (ip), vehicle: other
[7] = dose: 400.0 mg/kg/injection, schedule: Q01DX001 (ip), vehicle: other
[8] = dose: 100.0 mg/kg/injection, schedule: Q04DX003 (ip), vehicle: Klucel (hydroxypropylcellulose) (HPC)
[9] = dose: 100.0 mg/kg/injection, schedule: Q01DX009 (ip), vehicle: Klucel (hydroxypropylcellulose) (HPC)
[10] = dose: 200.0 mg/kg/injection, schedule: Q01DX009 (ip), vehicle: Klucel (hydroxypropylcellulose) (HPC)
[11] = dose: 200.0 mg/kg/injection, schedule: Q04DX003 (ip), vehicle: Klucel (hydroxypropylcellulose) (HPC)
[12] = dose: 400.0 mg/kg/injection, schedule: Q01DX009 (ip), vehicle: Klucel (hydroxypropylcellulose) (HPC)
[13] = dose: 400.0 mg/kg/injection, schedule: Q04DX003 (ip), vehicle: Klucel (hydroxypropylcellulose) (HPC)
[14] = dose: 100.0 mg/kg/injection, schedule: Q01DX001 (ip), vehicle: carboxymethylcellulose (CMC)
[15] = dose: 200.0 mg/kg/injection, schedule: Q01DX001 (ip), vehicle: carboxymethylcellulose (CMC)

Measured: T/C

CC(=O)c1ccc(N=Nc2ccc(N(C)C)cc2)cc1
inactive: dose: 100.0 mg/kg/injection, schedule: Q01DX009 (ip), vehicle: carboxymethylcellulose (CMC) 100 % of control and 110 % of control | dose: 100.0 mg/kg/injection, schedule: Q04DX002 (ip), vehicle: carboxymethylcellulose (CMC) 100 % of control | dose: 100.0 mg/kg/injection, schedule: Q04DX003 (ip), vehicle: carboxymethylcellulose (CMC) 100 % of control | dose: 200.0 mg/kg/injection, schedule: Q01DX009 (ip), vehicle: carboxymethylcellulose (CMC) 98 % of control and 102 % of control | dose: 200.0 mg/kg/injection, schedule: Q04DX002 (ip), vehicle: carboxymethylcellulose (CMC) 93 % of control | dose: 200.0 mg/kg/injection, schedule: Q04DX003 (ip), vehicle: carboxymethylcellulose (CMC) 101 % of control | dose: 400.0 mg/kg/injection, schedule: Q01DX009 (ip), vehicle: carboxymethylcellulose (CMC) 95 % of control and 90 % of control | dose: 400.0 mg/kg/injection, schedule: Q04DX002 (ip), vehicle: carboxymethylcellulose (CMC) 88 % of control | dose: 400.0 mg/kg/injection, schedule: Q04DX003 (ip), vehicle: carboxymethylcellulose (CMC) 101 % of control

CC1N=C(c2ccccc2)C(c2ccccc2)=NC1C (stereo unspecified)
inactive: [1] 94 % of control | [2] 101 % of control | [3] 101 % of control

N=C(N)Cc1ccc(NC(=O)c2ccc(C(=O)Nc3ccc(CC(=N)N)cc3)cc2)cc1
inactive: dose: 3.75 mg/kg/injection, schedule: Q01DX Z (ip), vehicle: methylcellulose (MC) 108 % of control | dose: 3.75 mg/kg/injection, schedule: Q01DX Z (ip), vehicle: saline 89 % of control | dose: 7.5 mg/kg/injection, schedule: Q01DX Z (ip), vehicle: methylcellulose (MC) 108 % of control | dose: 15.0 mg/kg/injection, schedule: Q01DX Z (oral), vehicle: saline 105 % of control | dose: 22.0 mg/kg/injection, schedule: Q01DX001 (ip), vehicle: carboxymethylcellulose (CMC) 107 % of control and 109 % of control | dose: 25.0 mg/kg/injection, schedule: Q04DX003 (ip), vehicle: saline 107 % of control | dose: 30.0 mg/kg/injection, schedule: Q01DX Z (ip), vehicle: methylcellulose (MC) 116 % of control | dose: 30.0 mg/kg/injection, schedule: Q01DX Z (ip), vehicle: saline 103 % of control and 113 % of control | dose: 30.0 mg/kg/injection, schedule: Q01DX Z (oral), vehicle: saline 102 % of control | dose: 33.0 mg/kg/injection, schedule: Q01DX001 (ip), vehicle: carboxymethylcellulose (CMC) 112 % of control | dose: 33.0 mg/kg/injection, schedule: Q04DX003 (ip), vehicle: saline 107 % of control | dose: 37.5 mg/kg/injection, schedule: Q01DX009 (ip), vehicle: saline with Tween-80 120 % of control | [4] 117 % of control | dose: 60.0 mg/kg/injection, schedule: Q01DX Z (oral), vehicle: saline 108 % of control and 109 % of control | dose: 100.0 mg/kg/injection, schedule: Q04DX003 (ip), vehicle: saline 120 % of control | dose: 120.0 mg/kg/injection, schedule: Q01DX Z (oral), vehicle: saline 103 % of control and 108 % of control | dose: 240.0 mg/kg/injection, schedule: Q01DX Z (oral), vehicle: saline 112 % of control | dose: 480.0 mg/kg/injection, schedule: Q01DX Z (oral), vehicle: saline 106 % of control
active: dose: 15.0 mg/kg/injection, schedule: Q01DX Z (ip), vehicle: saline 155 % of control | dose: 16.5 mg/kg/injection, schedule: Q01DX009 (ip), vehicle: saline with Tween-80 171 % of control | dose: 25.0 mg/kg/injection, schedule: Q01DX009 (ip), vehicle: saline with Tween-80 219 % of control | dose: 25.0 mg/kg/injection, schedule: Q01DX009 (ip), vehicle: saline 174 % of control | dose: 75.0 mg/kg/injection, schedule: Q04DX003 (ip), vehicle: saline 183 % of control

O=C(N/N=C\c1ccc([N+](=O)[O-])cc1)c1ccco1
inactive: [5] 93 % of control | [6] 93 % of control | [7] 93 % of control

CCn1c2ccccc2c2cc(NC(=O)N(CCCl)N=O)ccc21
inactive: dose: 177.0 mg/kg/injection, schedule: Q01DX009 (ip), vehicle: carboxymethylcellulose (CMC) 121 % of control
active: dose: 266.0 mg/kg/injection, schedule: Q01DX009 (ip), vehicle: carboxymethylcellulose (CMC) 188 % of control

[O-][n+]1onc2ccccc21
inactive: dose: 100.0 mg/kg/injection, schedule: Q01DX001 (ip), vehicle: saline with Tween-80 97 % of control

CNCC1OC(n2cc(C)c(=O)[nH]c2=O)CC1O (stereo unspecified)
inactive: dose: 25.0 mg/kg/injection, schedule: Q04DX002 (ip), vehicle: saline 108 % of control | dose: 50.0 mg/kg/injection, schedule: Q04DX002 (ip), vehicle: saline 115 % of control | dose: 100.0 mg/kg/injection, schedule: Q04DX002 (ip), vehicle: saline 97 % of control

O=C(COc1ccc(Cl)c(Cl)c1)NCc1ccc[n+](Cc2ccc(S(=O)(=O)F)cc2)c1
inactive: dose: 25.0 mg/kg/injection, schedule: Q04DX003 (ip), vehicle: Klucel (hydroxypropylcellulose) (HPC) 106 % of control | dose: 50.0 mg/kg/injection, schedule: Q04DX003 (ip), vehicle: Klucel (hydroxypropylcellulose) (HPC) 101 % of control | [8] 94 % of control and 101 % of control

C=CCOCC(O)CN(CC)c1ccccc1 (stereo unspecified)
inactive: dose: 50.0 mg/kg/injection, schedule: Q01DX009 (ip), vehicle: Klucel (hydroxypropylcellulose) (HPC) 95 % of control | [9] 96 % of control | [8] 100 % of control | [10] 94 % of control and 102 % of control | [11] 102 % of control | [12] 90 % of control | [13] 100 % of control

O=S1C=C(c2ccc(Cl)cc2)OC1 (stereo unspecified)
inactive: dose: 12.0 mg/kg/injection, schedule: Q01DX001 (ip), vehicle: saline 102 % of control | dose: 25.0 mg/kg/injection, schedule: Q01DX001 (ip), vehicle: saline 107 % of control | dose: 50.0 mg/kg/injection, schedule: Q01DX001 (ip), vehicle: saline 107 % of control

O=S(=O)(/N=[N+](\[O-])c1ccccc1)c1ccccc1
inactive: dose: 100.0 mg/kg/injection, schedule: Q01DX001 (ip), vehicle: saline 103 % of control | dose: 200.0 mg/kg/injection, schedule: Q01DX001 (ip), vehicle: saline 100 % of control | dose: 400.0 mg/kg/injection, schedule: Q01DX001 (ip), vehicle: saline 103 % of control

CCCCN(CCC#N)CCCC
inactive: dose: 25.0 mg/kg/injection, schedule: Q04DX003 (ip), vehicle: saline with Tween-80 111 % of control | dose: 29.5 mg/kg/injection, schedule: Q01DX009 (ip), vehicle: saline with Tween-80 107 % of control | dose: 50.0 mg/kg/injection, schedule: Q04DX003 (ip), vehicle: saline with Tween-80 105 % of control | dose: 59.0 mg/kg/injection, schedule: Q01DX009 (ip), vehicle: saline with Tween-80 107 % of control | [1] 97 % of control | dose: 118.0 mg/kg/injection, schedule: Q01DX009 (ip), vehicle: saline with Tween-80 108 % of control

CN/N=C/c1ccc(O)c(OC)c1
inactive: [1] 95 % of control | [2] 90 % of control | [3] 91 % of control

CC(=O)N/N=C/c1ccc(N(C)C)cc1
inactive: [14] 94 % of control | [15] 94 % of control

Cc1cn(-c2ccccc2)c(C)c(C(=O)O)c1=O
inactive: [5] 101 % of control | [6] 102 % of control | [7] 91 % of control

NC(=O)C(Cl)Cl
inactive: [1] 113 % of control | [2] 103 % of control | [3] 94 % of control

C=C(Br)CNC(=O)C(C)C
inactive: dose: 5.0 mg/kg/injection, schedule: Q04DX003 (ip), vehicle: saline with Tween-80 102 % of control | dose: 10.0 mg/kg/injection, schedule: Q04DX003 (ip), vehicle: saline with Tween-80 103 % of control | dose: 20.0 mg/kg/injection, schedule: Q04DX003 (ip), vehicle: saline with Tween-80 102 % of control

CCOc1ccccc1NC(=S)NC1CCCCC1
inactive: [9] 97 % of control | [10] 100 % of control

COC(=O)C1Oc2ccc(Cl)cc2Cc2cc(Cl)ccc2O1
inactive: [9] 93 % of control | [8] 100 % of control | [10] 93 % of control | [11] 93 % of control | [12] 93 % of control | [13] 90 % of control

N#CSCC(=O)c1ccc(Cl)cc1
inactive: [4] 91 % of control | [14] 100 % of control | [15] 100 % of control
